From patent US20130172308A1, “ANTIMICROBIAL AGENTS” (John Grant COLLINS, priority 2011, published 2013)

Assays:
S. aureus ATCC 25923 = test: MIC determination, broth micro-dilution (CAMHB); type: cell-based, Staphylococcus aureus
Procedure: (§1) Four strains of bacteria were chosen for the susceptibility tests: S. aureus ATCC 25923; MRSA (a wild clinical strain from the JCU culture collection); E. coli ATCC 25922 and P. aeruginosa ATCC 27853. The bacteria were grown on Mueller Hinton agar (OXOID, cat. No. CM0337) and suspended in growth medium cation-adjusted Mueller Hinton broth (CAMHB, OXOID, cat. No. CM0405). The MIC of each complex was determined in duplicate by standard micro-dilution methodology (British Society for Antimicrobial Chemotherapy Working Party, J. Antimicrob. Chemother., 1991, 27(suppl. D), 22) using gentamicin as the positive control. The ruthenium complexes were dissolved in CAMHB to a stock solution of […] and two-fold diluted in the broth in 96-well plates in a final volume of […] in each well. The same volume […] of bacterial suspension was added in each well making a concentration range of 0.25 mg ml^−1 to 128 mg ml^−1 for each complex. The plates were incubated at 37° C. for 24 h. The results are summarised in Table 1 below, using the following abbreviations: • Rubpm=ΔΔ-[{Ru(phen)2}2(μ-2,2′-bipyrimidine)]Cl4 • Rudppm=ΔΔ-[{Ru(phen)2}2(μ-4,6-bis(2-pyridyl)pyrimidine)]Cl4 • Rubb7trinuclear=Δ*Δ*-[{Ru*(phen)2}(μ-bb7){Ru(phen)}(μ-bb7){Ru*(phen)2}]Cl6 (only the two terminal metal centres are chiral, the two central metal centres are racemic) • Rubb7tetranuclear=Δ*Δ*-[{Ru*(phen)2}(μ-bb7) {Ru(phen)}(μ-bb7){Ru(phen)}(μ-bb7)-{Ru*(phen)2}]Cl8 (only the two terminal metal centres are chiral, the two central metal centres are racemic)
(§2) Further MIC assays and Minimum Bactericidal Concentration (MBC) assays were conducted against Gram-positive and Gram-negative bacterial strains using symmetric and non-symmetric, inert and labile complexes.

[1] = system: MRSA (a wild clinical strain from the JCU culture collection); test: MIC determination, broth micro-dilution (CAMHB); type: cell-based, methicillin-resistant S. aureus
Procedure: as §1, §2

E. coli ATCC 25922 = test: MIC determination, broth micro-dilution (CAMHB); type: cell-based, Escherichia coli
Procedure: as §1, §2

P. aeruginosa ATCC 27853 = test: MIC determination, broth micro-dilution (CAMHB); type: cell-based, Pseudomonas aeruginosa
Procedure: as §1, §2

S. aureus = test: Minimum Bactericidal Concentration (MBC) assay (CAMHB); type: cell-based, Staphylococcus aureus; conditions: Table 4, all ΔΔ- enantiomers
Procedure: as §2

MRSA = test: as above; type: cell-based, methicillin-resistant S. aureus; conditions: Table 4, all ΔΔ- enantiomers
Procedure: as §2

E. coli = test: as above; type: cell-based, Escherichia coli; conditions: Table 4, all ΔΔ- enantiomers
Procedure: as §2

P. aeruginosa = test: as above; type: cell-based, Pseudomonas aeruginosa; conditions: Table 4, all ΔΔ- enantiomers
Procedure: as §2

[2] = type: physicochemical; conditions: pH 7.4
Procedure: The primary difference between the members of the Rubbn family of complexes is the number of methylene groups in the flexible linking chain. […] Lipophilicity is a significant factor affecting the biological activity of most therapeutic compounds, as it relates to the capacity of the drug to penetrate through the cell membrane. The standard octanol-water partition coefficient (logP) was determined for the Rubbn series (F. Lombardo, B. Faller, M. Shalaeva, I. Tetko and S. Tilton, Methods and Principles in Medicinal Chemistry, 2008, 37, 407) parent model mononuclear species ([Ru(phen)2(Me2bpy)]^2+) and the trinuclear and tetranuclear complexes.
The partition coefficients (logP) were measured using the shake flask technique: each ruthenium complex (at both 0.05 and 0.1 mM) was dissolved in the water phase (0.2 M Na2HPO4—NaH2PO4 buffer, pH=7.4) and an equivalent volume of n-octanol was added.
The two phases were mutually saturated by shaking overnight at ambient temperature and then were allowed to separate on standing. The concentration of the metal complex in each phase was determined spectrophotometrically at l=450 nm.

S. epidermidis = test: Further MIC assays, whole spectrum bacteria (CAMHB); type: cell-based; conditions: Table 3; Broth: CAMHB
Procedure: (§3) Further MIC assays were conducted against five different bacteria with Rubbn (n=7, 10, 12, 16), two rigid dinuclear species (bridges bpm and dppm) and Gentamicin—Whole spectrum bacteria MIC test results (Broth: CAMHB).

S. typhimurium = test: as above; type: cell-based; conditions: Table 3; Broth: CAMHB
Procedure: as §3

E. faecalis = test: as above; type: cell-based; design: unit not given beside the values; conditions: Table 3; Broth: CAMHB
Procedure: as §3

VRE = test: as above; type: cell-based, vancomycin-resistant Enterococcus; conditions: Table 3; Broth: CAMHB
Procedure: as §3

A. baumanii = test: as above; type: cell-based; design: unit not given here; conditions: Table 3; Broth: CAMHB
Procedure: as §3

[3] = Table 4, CAMHB, all ΔΔ- enantiomers

Row | Molecule | MIC S. aureus (S. aureus ATCC 25923; [3]) | MIC MRSA [1, 3] | MIC E. coli (E. coli ATCC 25922; [3]) | MIC P. aeruginosa (P. aeruginosa ATCC 27853; [3]) | MBC S. aureus (S. aureus) [µg/mL] | MBC MRSA (MRSA) [µg/mL] | MBC E. coli (E. coli) [µg/mL] | MBC P. aeruginosa (P. aeruginosa) [µg/mL] | MIC S. aureus (S. aureus ATCC 25923; Table 1, 37° C., 24 h) | MIC MRSA ([1]; Table 1, 37° C., 24 h) [µg/mL] | MIC E. coli (E. coli ATCC 25922; Table 1, 37° C., 24 h) [µg/mL] | MIC P. aeruginosa (P. aeruginosa ATCC 27853; Table 1, 37° C., 24 h) [µg/mL] | logP [2] | MIC S. epidermidis (S. epidermidis) | MIC S. typhimurium (S. typhimurium) | MIC E. faecalis (E. faecalis) | MIC VRE (VRE) | MIC A. baumanii (A. baumanii)
1 | Cc1cc[n+]2c(c1)-c1cc(CCCCCCCc3cc[n+]4c(c3)-c3cc(C)cc[n+]3[Ru-4]435([n+]4cccc6ccc7ccc[n+]3c7c64)[n+]3cccc4ccc6ccc[n+]5c6c43)cc[n+]1[Ru-4]213([Cl])[n+]2ccccc2-c2cccc([n+]21)-c1cccc[n+]13 [Ru(μ-bb7)Ru—Cl, [Ru(phen)2(μ-bb7)Ru(terpy)Cl]] | 8 | 8 | 1 | 16 | 16 | 32 | 1 | 32 |  |  |  |  |  |  |  |  |  | 
2 | Δ-[Ru(phen)2(Me2bipy)](PF6)2 [[Ru(phen)2(Me2bpy)]^2+, reference compound] |  |  |  |  |  |  |  |  | 128 µg/mL | >128 | >128 | >128 | −2.9 |  |  |  |  | 
3 | [Ru(phen)2(μ-bb12)Ru(terpy)Cl](PF6)3 [Ru(μ-bb12)Ru—Cl] | 1 | 1 | 1 | 16 | 1 | 2 | 1 | 32 |  |  |  |  |  |  |  |  |  | 
4 | [Ru(phen)2(μ-bb16)Ru(terpy)Cl](PF6)3 [Ru(μ-bb16)Ru—Cl] | 2 | 2 | 4 | 64 | 2 | 2 | 4 | 64 |  |  |  |  |  |  |  |  |  | 
5 | Cc1ccnc(-c2cc(CCCCCCCc3cc[n+]4c(c3)-c3cc(C)cc[n+]3[Ru-4]435([n+]4cccc6ccc7ccc[n+]3c7c64)[n+]3cccc4ccc6ccc[n+]5c6c43)ccn2)c1 [Rubb7mono, Δ-[Ru(phen)2(bb7)]^2+] |  |  |  |  |  |  |  |  | 4 µg/mL | 16 | 16 | 32 | −0.7 |  |  |  |  | 
6 | Cc1cc[n+]2c(c1)-c1cc(CCCCCCCCCCCCc3cc[n+]4c(c3)-c3cc(C)cc[n+]3[Ru-4]435([Cl])[n+]4ccccc4-c4cccc([n+]43)-c3cccc[n+]35)cc[n+]1[Ru-4]213([Cl])[n+]2ccccc2-c2cccc([n+]21)-c1cccc[n+]13.F[P-](F)(F)(F)(F)F.F[P-](F)(F)(F)(F)F [Rubb12-Cl, [{Ru(terpy)(Cl)}2(μ-bb12)](PF6)2] | 1 | 1 | 2 | 8 | 1 | 1 | 2 | 16 |  |  |  |  |  |  |  |  |  | 
7 | Cc1cc[n+]2c(c1)-c1cc(CCCCCCCc3cc[n+]4c(c3)-c3cc(C)cc[n+]3[Ru-4]435([n+]4cccc6ccc7ccc[n+]3c7c64)[n+]3cccc4ccc6ccc[n+]5c6c43)cc[n+]1[Ru-4]213([n+]2cccc4ccc5ccc[n+]1c5c42)[n+]1cccc2ccc4ccc[n+]3c4c21.F[P-](F)(F)(F)(F)F.F[P-](F)(F)(F)(F)F.F[P-](F)(F)(F)(F)F.F[P-](F)(F)(F)(F)F [Rubb7, [{Ru(phen)2}2(μ-bb7)](PF6)4] | 16 | 16 | 16 | 64 | 32 | 32 | 16 | 128 |  |  |  |  | −3.4 |  |  |  |  | 
8 | Δ*Δ*-[{Ru*(phen)2}(μ-bb7) {Ru(phen)}(μ-bb7){Ru(phen)}(μ-bb7)-{Ru*(phen)2}]Cl8 [Rubb7tetranuclear] |  |  |  |  |  |  |  |  | 8 µg/mL | 8 | 32 | 8 | −1.9 |  |  |  |  | 
9 | gentamicin [reference compound] |  |  |  |  |  |  |  |  | ≦0.0625 μg.ml^−1 | 16 | 0.5 | 0.125 |  | <0.125 | 2 | 32 | 16 | 16
10 | [{Ru(terpy)Cl}2(μ-bb7)] [Rubb7-Cl] | 8 | 8 | 8 | 32 | 8 | 16 | 8 | 64 |  |  |  |  |  |  |  |  |  | 
11 | [Cl-].[Cl-].[Cl-].[Cl-].c1cc[n+]2c(c1)-c1cc3[n+](c[n+]1[Ru-4]214([n+]2cccc5ccc6ccc[n+]1c6c52)[n+]1cccc2ccc5ccc[n+]4c5c21)[Ru-4]12([n+]4ccccc4-3)([n+]3cccc4ccc5ccc[n+]1c5c43)[n+]1cccc3ccc4ccc[n+]2c4c31 [Rudppm, ΔΔ-[{Ru(phen)2}2(μ-4,6-bis(2-pyridyl)pyrimidine)]Cl4, reference compound] |  |  |  |  |  |  |  |  | >128 µg/mL | >128 | >128 | >128 |  | >128 | >128 | >128 | >128 | >128
12 | Δ-[Ru(phen)2(bb16)]Cl2 [Rubb16mono] |  |  |  |  |  |  |  |  | 16 µg/mL | 16 | 64 | 64 | +2.1 |  |  |  |  | 
13 | [{Ru(terpy)(Cl)}2(μ-bb14)](PF6)2 [Rubb14-Cl] | 1 | 1 | 2 | 32 | 1 | 2 | 2 | 64 |  |  |  |  |  |  |  |  |  | 
